From ChEMBL document CHEMBL3400060, “Nucleobase modified neamines with a lysine as a linker, their inhibition specificity for TAR-Tat derived from HIV-1” (Bioorg Med Chem, 2015)

Columns and labels:
Nucleic Acid = experiment: Binding affinity to HIV-1 TAR RNA by FRET assay; type: nucleic-acid assay, Human immunodeficiency virus 1
[1] = Binding affinity to HIV-1 RRE RNA by fluorescence anisotropy; set-up: species or system Human immunodeficiency virus 1

Kd (Nucleic Acid) [nM]	Kd [1] [nM]	SMILES
860	570	Cc1cn(CC(=O)NCCCC[C@H](N)C(=O)NC[C@H]2O[C@H](O[C@H]3[C@H](O)[C@@H](O)[C@H](N)C[C@@H]3N)[C@H](N)[C@@H](O)[C@@H]2O)c(=O)[nH]c1=O
740	570	Nc1ncnc2c1ncn2CC(=O)NCCCC[C@H](N)C(=O)NC[C@H]1O[C@H](O[C@H]2[C@H](O)[C@@H](O)[C@H](N)C[C@@H]2N)[C@H](N)[C@@H](O)[C@@H]1O
	5700	NCCCC[C@H](N)C(=O)NC[C@H]1O[C@H](O[C@H]2[C@H](O)[C@@H](O)[C@H](N)C[C@@H]2N)[C@H](N)[C@@H](O)[C@@H]1O
240	530	Nc1nc2c(ncn2CC(=O)NCCCC[C@H](N)C(=O)NC[C@H]2O[C@H](O[C@H]3[C@H](O)[C@@H](O)[C@H](N)C[C@@H]3N)[C@H](N)[C@@H](O)[C@@H]2O)c(=O)[nH]1
1400	640	Nc1ccn(CC(=O)NCCCC[C@H](N)C(=O)NC[C@H]2O[C@H](O[C@H]3[C@H](O)[C@@H](O)[C@H](N)C[C@@H]3N)[C@H](N)[C@@H](O)[C@@H]2O)c(=O)n1

SMILES	Kd (Nucleic Acid) [nM]	Kd [1] [nM]
NC[C@H]1O[C@H](O[C@H]2[C@H](O)[C@@H](O)[C@H](N)C[C@@H]2N)[C@H](N)[C@@H](O)[C@@H]1O [NEAMINE]		5400
